# Experimental data published in patent publication US8722687B2, “Imidazo [1,2-A]pyridine derivatives as FGFR kinase inhibitors for use in therapy” (Astex Therapeutics Ltd, priority 2009, dated 2014).
# Legend:
# [1] = biological target: T1, FGFR3 (Homo sapiens, UniProt P22607); assay: FGFR3 in vitro kinase inhibitory activity assay; type: biochemical; details: read-out: FGFR3 IC50(μM) or % I
# T1 construct: purchased Upstate
# Procedure: FGFR3, VEGFR2 and PDGFR in vitro Kinase Inhibitory Activity Assays
# Enzymes (from Upstate), prepared at 2× final concentration, were incubated with test compounds, biotinylated Flt3 substrate (biotin-VASSDNEYFYVDF) (Cell Signalling Technology Inc.) and ATP in the appropriate assay buffer (Table 1). The reaction was allowed to proceed for 3 hours (FGFR3), 1 hour (VEGFR2, PDGFR-beta) at room temperature on a plate shaker at 700 rpm before being stopped with 35 mM EDTA, pH 8 (FGFR3, VEGFR2) or 55 mM EDTA, pH 8 (PDGFR-beta). 5× detection mix/50 mM HEPES pH 7.5, 0.1% BSA, 11.34 nM Eu-anti-pY (PY20) (PerkinElmer) 74 nM SA-XL665 (Cisbio) for FGFR3, 50 mM HEPES, pH 7.5, 0.1% BSA, 11.34 nM Eu-anti-pY (PY20), 187.5 nM SA-XL665 for VEGFR2 and 50 mM HEPES, pH 7.5, 0.1% BSA, 11.34 nM Eu-anti-pY (PT66) (PerkinElmer), 375 nM SA-XL665 (Cisbio) for PDGFR-beta) was then added to each well and the plate sealed and incubated at room temperature for one hour on a plate shaker at 700 rpm. The plate was then read on a Packard Fusion plate reader or a BMG Pherastar both in TRF mode.
# [2] = biological target: T2, Ba/F3-Flt3 cells (Homo sapiens, UniProt P36888, cells depend on it, form not given); assay: Ba/F3-Flt3 assay (Alamar Blue); type: cell-based, murine; details: without IL3
# T2 construct: Ba/F3-flt3 − IL3 pIC50; other: without IL3
# T2 sequence (P36888 1-993): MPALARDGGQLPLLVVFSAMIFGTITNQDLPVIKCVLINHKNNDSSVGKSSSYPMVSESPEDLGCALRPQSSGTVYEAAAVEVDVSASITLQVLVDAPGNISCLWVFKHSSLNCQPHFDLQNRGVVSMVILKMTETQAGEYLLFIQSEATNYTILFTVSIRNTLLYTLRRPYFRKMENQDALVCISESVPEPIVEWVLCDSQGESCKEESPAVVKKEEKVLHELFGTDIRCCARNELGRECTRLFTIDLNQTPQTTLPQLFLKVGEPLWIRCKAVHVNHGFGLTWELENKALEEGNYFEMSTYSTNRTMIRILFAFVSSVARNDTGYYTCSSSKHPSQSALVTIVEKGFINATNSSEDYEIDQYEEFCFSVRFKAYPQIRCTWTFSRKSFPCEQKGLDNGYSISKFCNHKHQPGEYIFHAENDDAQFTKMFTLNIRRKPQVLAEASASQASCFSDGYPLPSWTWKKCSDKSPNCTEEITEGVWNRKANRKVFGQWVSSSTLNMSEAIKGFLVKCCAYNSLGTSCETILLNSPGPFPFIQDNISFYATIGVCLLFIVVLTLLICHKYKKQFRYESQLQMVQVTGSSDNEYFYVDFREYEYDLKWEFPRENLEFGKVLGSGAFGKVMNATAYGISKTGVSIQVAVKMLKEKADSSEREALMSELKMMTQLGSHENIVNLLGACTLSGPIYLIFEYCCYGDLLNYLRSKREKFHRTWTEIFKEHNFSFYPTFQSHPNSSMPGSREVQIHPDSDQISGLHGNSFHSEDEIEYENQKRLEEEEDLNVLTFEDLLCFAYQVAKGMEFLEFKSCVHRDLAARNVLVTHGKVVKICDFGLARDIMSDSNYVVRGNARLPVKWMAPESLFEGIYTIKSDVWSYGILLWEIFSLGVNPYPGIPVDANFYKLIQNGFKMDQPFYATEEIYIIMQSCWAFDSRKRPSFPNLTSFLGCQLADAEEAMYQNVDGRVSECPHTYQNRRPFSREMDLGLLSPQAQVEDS
# Description: (§1) Ba/F3, a murine interleukin-3 dependent pro-B cell line is increasingly popular as a model system for assessing both the potency and downstream signaling of kinase oncogenes, and the ability of small-molecule kinase inhibitors to block kinase activity. Facilitated by their growth properties. Ba/F3 cells have recently been adapted to high throughput assay formats for compound profiling. Further, several published approaches show promise in predicting resistance to small-molecule kinase inhibitors elicited by point mutations interfering with inhibitor binding (Ba/F3 cells and their use in kinase drug discovery; Markus Warmuth, Sungjoon Kim, Xiang-ju Gu, Gang Xia and Francisco Adria'n; Curr Opin Oncol 19:55-60).
# (§2) Ba/F3-Flt3 cells (cultured in phenol red free RPMI-1640, 10% A FCS and 50 μg/ml Gentamycin at 37° C. and 5% 002) were plated at a density of 10000 cells in a total volume of 180 μl medium in a black TC-treated sterile 96-well plate (Corning). After 24 hours, drugs in different dilutions were added to a final volume of 200 μl and at a final DMSO concentration of 0.2% prior to incubation at 37° C., and 5% CO2.
# (§3) After 24 h, to each well 40 μl Alamar Blue solution (Aldrich) was added and the cells were further incubated for 4 hours at 37° C. Fluorescence (ex. 544, em. 590 nm) was measured using a fluorescence reader (Labsystems) and IC50's were calculated.
# (§4) In the condition containing IL3, 10 ng/ml of murine IL3 (PeproTech) was added during compound incubation.
# [3] = system: Ba/F3-Flt3 cells; assay: Ba/F3-Flt3 assay (Alamar Blue); type: cell-based, murine; details: Mus musculus, 24 h; with 10 ng/ml murine IL3; read-out: Ba/F3-flt3 + IL3 pIC50 (converted)
# Description: as §1, §2, §3, §4
# [4] = biological target: T3, Ba/F3-TEL-FGFR3 cells (Homo sapiens, UniProt P22607); assay: Ba/F3-TEL-FGFR3 cell proliferation assay (Alamar Blue); type: cell-based, murine; details: 72 hours; read-out: BaF3-TEL-FGFR3 prolif
# T3 construct: fused on or other part: TEL (ETV6) N-terminal oligomerising part fused to the FGFR3 kinase part; P41212 (Transcription factor ETV6)
# T3 sequence (P22607 whole entry, change not shown, the tested form may be a part): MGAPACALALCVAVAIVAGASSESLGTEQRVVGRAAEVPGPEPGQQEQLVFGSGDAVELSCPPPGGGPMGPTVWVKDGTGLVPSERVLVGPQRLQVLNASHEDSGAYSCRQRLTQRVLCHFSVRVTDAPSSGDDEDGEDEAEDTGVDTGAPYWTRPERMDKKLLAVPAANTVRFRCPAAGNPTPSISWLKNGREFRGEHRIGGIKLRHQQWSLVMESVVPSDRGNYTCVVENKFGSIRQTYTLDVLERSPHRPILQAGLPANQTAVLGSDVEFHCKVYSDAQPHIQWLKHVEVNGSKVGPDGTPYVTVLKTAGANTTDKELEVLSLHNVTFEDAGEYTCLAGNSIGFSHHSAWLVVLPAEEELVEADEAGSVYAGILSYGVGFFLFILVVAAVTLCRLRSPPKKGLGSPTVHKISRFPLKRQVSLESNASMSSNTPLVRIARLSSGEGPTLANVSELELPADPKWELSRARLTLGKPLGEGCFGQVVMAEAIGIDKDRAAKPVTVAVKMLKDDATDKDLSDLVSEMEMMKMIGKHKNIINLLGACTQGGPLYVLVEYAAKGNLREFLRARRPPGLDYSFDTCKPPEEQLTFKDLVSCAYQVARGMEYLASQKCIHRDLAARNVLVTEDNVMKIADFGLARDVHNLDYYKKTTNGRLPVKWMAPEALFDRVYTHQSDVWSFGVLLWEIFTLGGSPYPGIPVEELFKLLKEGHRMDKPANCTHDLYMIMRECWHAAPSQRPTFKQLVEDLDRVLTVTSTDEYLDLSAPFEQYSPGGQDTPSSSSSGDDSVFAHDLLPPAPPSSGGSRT
# Procedure: Ba/F3-TEL-FGFR3 & Ba/F3 (WT) Cell Proliferation Assays
# Stably transfected Ba/F3-TEL-FGFR3 cells were plated out into black 96-well tissue culture plates with clear bottoms in RPMI medium containing 10% FBS and 0.25 mg/ml G418 at a density of 5×10^3 cells/well (200 μl per well). The parental wild-type Ba/F3 cells (DSMZ no.: ACC 300) were plated out into black 96-well tissue culture plates with clear bottoms in RPMI medium containing 10% FBS and 2 ng/ml mouse IL-3 (R&D Systems) at a density of 2.5×10^3 cells/well (200 μl per well). Plates were placed in an incubator overnight before adding the compounds the following day. Dilutions of compounds were made in DMSO starting at 10 mM and were diluted into the wells to give a final DMSO concentration of 0.1% in assay. Compounds were left on the cells for 72 hours before the plates were removed from the incubator and 20 μl of Alamar Blue™ (Biosource) was added to each well. Plates were placed in the incubator for 4-6 hours before reading plates at 535 nm (excitation)/590 nm (emission) on a Fusion plate reader (Packard). Where inhibition is high an IC50 can be determined.
# T1 sequence (P22607 23-806): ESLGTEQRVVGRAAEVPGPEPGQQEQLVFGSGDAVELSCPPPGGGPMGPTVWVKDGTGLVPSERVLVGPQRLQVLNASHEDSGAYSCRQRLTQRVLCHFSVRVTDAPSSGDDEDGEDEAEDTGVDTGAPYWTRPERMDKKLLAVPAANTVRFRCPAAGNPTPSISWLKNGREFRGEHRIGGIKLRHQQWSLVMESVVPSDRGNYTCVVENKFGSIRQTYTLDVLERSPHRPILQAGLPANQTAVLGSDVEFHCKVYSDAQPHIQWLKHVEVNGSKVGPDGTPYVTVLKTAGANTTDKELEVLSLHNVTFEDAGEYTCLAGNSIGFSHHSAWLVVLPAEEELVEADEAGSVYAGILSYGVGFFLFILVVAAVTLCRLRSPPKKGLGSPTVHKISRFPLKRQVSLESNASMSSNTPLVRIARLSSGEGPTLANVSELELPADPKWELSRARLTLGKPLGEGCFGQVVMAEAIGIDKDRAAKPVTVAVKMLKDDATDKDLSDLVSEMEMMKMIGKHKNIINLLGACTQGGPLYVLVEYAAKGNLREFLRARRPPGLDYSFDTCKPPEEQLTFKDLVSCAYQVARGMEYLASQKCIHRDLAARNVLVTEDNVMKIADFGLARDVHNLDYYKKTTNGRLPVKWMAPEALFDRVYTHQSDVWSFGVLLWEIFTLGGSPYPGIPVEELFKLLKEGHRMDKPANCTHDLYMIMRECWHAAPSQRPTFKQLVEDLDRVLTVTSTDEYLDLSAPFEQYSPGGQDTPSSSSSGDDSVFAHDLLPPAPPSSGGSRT
SMILES,IC50 [1] [µM],Ba/F3-flt3 − IL3 pIC50 [2],IC50 [3] [nM],GI50 [4] [nM]
"Cc1nnc(-c2ccn3c(-c4cc(NC(=O)NCC(F)(F)F)cc(OC(C)C)c4)cnc3c2)s1.Cl [Compound F-20, 1-{3-Isopropoxy-5-[7-(5-methyl-[1,3,4]thiadiazol-2-yl)-imidazo[1,2-a]pyridin-3-yl]-phenyl}-3-(2,2,2-trifluoro-ethyl)-urea]",0.00096,<5,> 10000,9
"Cc1nnc(-c2ccn3c(-c4cc(NC(=O)NCC(F)(F)F)cc(OC(C)C)c4)cnc3c2)o1 [Compound F-5, 1-{3-Isopropoxy-5-[7-(5-methyl-[1,3,4]oxadiazol-2-yl)-imidazo[1,2-a]pyridin-3-yl]-phenyl}-3-(2,2,2-trifluoro-ethyl)-urea]",0.0154,<5,> 10000,220
"CCNC(=O)Nc1cc(OC(C)C)cc(-c2cnc3cc(-c4nnc(C)s4)ccn23)c1 [Compound F-23, 1-Ethyl-3-{3-isopropoxy-5-[7-(5-methyl-[1,3,4]thiadiazol-2-yl)-imidazo[1,2-a]pyridin-3-yl]-phenyl}-urea]",0.004,<5,> 10000,50
"CC(C)Oc1cc(NC(=O)NCC(F)(F)F)cc(-c2cnc3cc(C(=O)C4CC4)ccn23)c1 [Compound F-6, 1-[3-(7-Cyclopropanecarbonyl-imidazo[1,2-a]pyridin-3-yl)-5-isopropoxy-phenyl]-3-(2,2,2-trifluoro-ethyl)-urea]",0.0012,<5,> 10000,31
"Cc1nc(-c2ccn3c(-c4cc(NC(=O)NCC(F)(F)F)cc(OC(C)C)c4)cnc3c2)ccc1F [Compound F-3, 1-{3-[7-(5-Fluoro-6-methyl-pyridin-2-yl)-imidazo[1,2-a]pyridin-3-yl]-5-isopropoxy-phenyl}-3-(2,2,2-trifluoro-ethyl)-urea]",0.0087,<5,> 10000,330
"COCc1cc(NC(=O)NCC(F)(F)F)cc(-c2cnc3cc(-c4ccnc(C(F)(F)F)n4)ccn23)c1 [Compound F-9, 1-{3-Methoxymethyl-5-[7-(2-trifluormethyl-pyrimidin-4-yl)-imidazo[1,2-a]pyridin-3-yl]-phenyl}-3-(2,2,2-trifluoro-ethyl)-urea]",0.0093,<5,> 10000,240
"CC(C)Oc1cc(NC(=O)NCC(F)(F)F)cc(-c2cnc3cc(OCCO)ccn23)c1 [Compound F-17, 1-{3-[7-(2-Hydroxy-ethoxy)-imidazo[1,2-a]pyridin-3-yl]-5-isopropoxy-phenyl}-3-(2,2,2-trifluoro-ethyl)-urea]",0.017,<5,> 10000,500
"CCNC(=O)Nc1cc(OC(C)C)cc(-c2cnc3cc(-c4nncs4)ccn23)c1 [Compound F-10, 1-Ethyl-3-[3-isopropoxy-5-(7-[1,3,4]thiadiazol-2-yl-imidazo[1,2-a]pyridin-3-yl)-phenyl]-urea]",0.013,5.04,> 10000,230
"CC(C)Oc1cc(NC(=O)NCC(F)(F)F)cc(-c2cnc3cc(-c4ccnc(C(F)(F)F)n4)ccn23)c1 [Compound F-8, 1-{3-Isopropoxy-5-[7-(2-trifluoromethyl-pyrimidin-4-yl)-imidazo[1,2-a]pyridin-3-yl]-phenyl}-3-(2,2,2-trifluoro-ethyl)-urea]",0.034,<5,> 10000,170
"Cc1cn(-c2ccn3c(-c4cc(NC(=O)NCC(F)(F)F)cc(OC(C)C)c4)cnc3c2)cn1 [Compound F-28, 1-{3-Isopropoxy-5-[7-(4-methylimidazol-1-yl)-imidazo[1,2-a]pyridin-3-yl]-phenyl}-3-(2,2,2-trifluoro-ethyl)-urea]",0.0016,<5,> 10000,100
"CCOc1cc(NC(=O)NCC(F)(F)F)cc(-c2cnc3cc(-c4nnc(C)o4)ccn23)c1 [Compound F-15, 1-{3-Ethoxy-5-[7-(5-methyl-[1,3,4]oxadiazol-2-yl)-imidazo[1,2-a]pyridin-3-yl]-phenyl}-3-(2,2,2-trifluoro-ethyl)-urea]",0.025,<5,> 10000,370
"CC(C)Oc1cc(NC(=O)NCC(F)(F)F)cc(-c2cnc3cc(-c4ncc(F)c(N)n4)ccn23)c1 [Compound F-1, 1-{3-[7-(4-Amino-5-fluoro-pyrimidin-2-yl)-imidazo[1,2-a]pyridin-3-yl]-5-isopropoxy-phenyl}-3-(2,2,2-trifluoro-ethyl)-urea]",0.0072,<5,> 10000,120
"CC(C)Oc1cc(NC(=O)NCC(F)(F)F)cc(-c2cnc3cc(-c4ncccn4)ccn23)c1 [Compound F-2, 1-[3-Isopropoxy-5-(7-pyrimidin-2-yl-imidazo[1,2-a]pyridin-3-yl)-phenyl]-3-(2,2,2-trifluoro-ethyl)-urea]",0.0144,<5,> 10000,170
